Tests used:
[1] = tested on: mouse epiblast stem cell-derived OPCs; assay: In vitro OPC differentiation assay (percentage of MBP+ oligodendrocytes, high-content imaging); type: cell-based; settings: 72 h, differentiation-permissive conditions
Procedure: To rigorously assess effects of small molecule and genetic treatments on OPCs, all treatments were assayed in two batches of epiblast stem cell-derived OPCs, and key results were confirmed using mouse primary OPCs. OPCs were generated from two separate EpiSC lines, EpiSC5 (giving rise to OPC-5 OPCs) and 12901 (giving rise to OPC-1 OPCs). EpiSC-derived OPCs were obtained using in vitro differentiation protocols and culture conditions described previously. To ensure uniformity throughout all in vitro screening experiments, EpiSC-derived OPCs were sorted to purity by fluorescence activated cell sorting at passage five with conjugated CD 140a-APC (eBioscience, 17-1401; 1:80) and NG2-AF488 (Millipore, AB[…]; 1:100) antibodies. Sorted batches of OPCs were expanded and frozen down in aliquots. OPCs were thawed into growth conditions for one passage before use in further assays. Cultures were regularly tested and shown to be mycoplasma free. EpiSC-derived OPCs were grown and expanded in poly-ornithine (PO) and laminin-coated flasks with growth medium (DMEM/F12 supplemented with N2-MAX (R&D Systems), B-27 (ThermoFisher), GlutaMax (Gibco), FGF2 ([…], R&D systems, 233-FB-025) and PDGF-AA ([…], R&D systems, 233-AA-050) before harvesting for plating. The cells were seeded onto poly-D-[…]-well CellCarrier plates (PerkinElmer) coated with laminin (Sigma, L2020; 15 μg/ml) using multi-channel pipet. For the experiment, 800,000 cells/mL stock in differentiation medium (DMEM/F12 supplemented with N2-MAX and B-27) was prepared and stored on ice for 2 h. Then, 40,000 cells were seeded per well in differentiation medium and allowed to attach for 30 min before addition of drug. For dose-response testing of all molecules except sterols, a 1000× compound stock in dimethyl sulphoxide (DMSO) was added to assay plates with 0.1 μL solid pin multi-blot replicators (V & P Scientific; VP 409), resulting in a final primary screening concentration of 1×. Sterols were added to cells as an ethanol solution (0.2% final ethanol concentration). Positive control wells (ketoconazole, 2.5 μM) and DMSO vehicle controls were included in each assay plate. Cells were incubated under standard conditions (37° C., 5% CO2) for 3 days and fixed with 4% paraformaldehyde (PFA) in phosphate buffered saline (PBS) for 20 min. Fixed plates were washed with PBS (200 μL per well) twice, permeabilized with 0.1% Triton X-100 and blocked with 10% donkey serum (v/v) in PBS for 40 min. Then, cells were labelled with MBP antibodies (Abcam, ab7349; 1:200) for 16 h at 4° C. followed by detection with Alexa Fluor conjugated secondary antibodies (1:500) for 45 min. Nuclei were visualized by DAPI staining (Sigma; 1 μg/ml). During washing steps, PBS was added using a multi-channel pipet and aspiration was performed using Biotek EL406 washer dispenser (Biotek) equipped with a 96-well aspiration manifold. Plates were imaged on the Operetta High Content Imaging and Analysis system (PerkinElmer) and a set of 6 fields captured from each well resulting in an average of 1200 cells being scored per well. Analysis (PerkinElmer Harmony and Columbus software) began by identifying intact nuclei stained by DAPI; that is, those traced nuclei that were larger than 300 μm^2 in surface area. Each traced nucleus region was then expanded by 50% and cross-referenced with the […] (MBP) stain to identify oligodendrocyte nuclei, and from this the percentage of oligodendrocytes was calculated. In some experiments, the total process length of MBP^+ oligodendrocytes was calculated as previously described.

[2] = tested on: sterol levels in OPCs (cholesterol biosynthesis pathway); assay: GC/MS-based sterol profiling in OPCs; type: cell-based, mouse; settings: 24 h treatment
estrogen receptor = settings: cited from earlier work
[3] = tested on: mouse brain sterol levels; assay: Analysis of mouse brain sterol levels (GC/MS); type: in vivo; settings: ifenprodil 10 mg per kg, tamoxifen 2 mg per kg, daily, 3 days
LPC-lesioned spinal cord [4] = assay: LPC focal demyelination of spinal cord, remyelination histology; type: in vivo, mouse; settings: ifenprodil 10 mg per kg or tamoxifen 2 mg per kg, daily i.p., 8 days from day 4 after lesion
[5] = tested on: human induced pluripotent stem cell-derived cortical spheroids; assay: Sterol profiling in human iPSC-derived cortical spheroids; type: cell-based
[6] = tested on: human myelinating cortical spheroids; assay: MyRF+ oligodendrocytes in human myelinating cortical spheroids; type: cell-based; settings: spheroids treated 10 days from day 62, stained day 93
Procedure: Spheroids at day 62 were treated with the indicated small molecules for 10 days and stained at day 93. Four spheroids were analyzed per treatment condition, and four fields per organoid were used in the quantitation. f) Representative images of spheroids. Nuclei are labeled with DAPI (blue), and oligodendrocytes are immunostained for MyRF (red). Scale bar, 100 μm.

[7] = mouse; cited from earlier work
LPC-lesioned spinal cord [8] = settings: previously established by the inventors; cited from earlier work
rat CYP51 = molecular target: T1, rat CYP51 (Rattus norvegicus, UniProt Q64654); assay: biochemical
T1 sequence (Q64654 1-503): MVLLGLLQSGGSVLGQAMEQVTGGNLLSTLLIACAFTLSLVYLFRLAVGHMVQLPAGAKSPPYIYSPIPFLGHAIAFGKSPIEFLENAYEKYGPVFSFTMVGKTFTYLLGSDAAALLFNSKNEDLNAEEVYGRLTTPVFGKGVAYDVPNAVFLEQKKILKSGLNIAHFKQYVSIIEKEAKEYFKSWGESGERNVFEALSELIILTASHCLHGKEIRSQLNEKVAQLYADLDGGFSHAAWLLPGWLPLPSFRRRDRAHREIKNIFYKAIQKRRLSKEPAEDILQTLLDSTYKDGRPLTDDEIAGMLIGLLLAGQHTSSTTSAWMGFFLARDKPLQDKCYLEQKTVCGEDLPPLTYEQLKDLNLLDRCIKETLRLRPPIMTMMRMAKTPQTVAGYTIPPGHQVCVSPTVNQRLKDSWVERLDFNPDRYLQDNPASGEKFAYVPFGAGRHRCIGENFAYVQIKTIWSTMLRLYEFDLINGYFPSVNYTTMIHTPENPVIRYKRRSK

| Compound | formation of MBP+ oligodendrocytes from OPCs [1] | accumulation of sterol intermediates in OPCs (enzyme inhibition in OPCs, e.g. EBP) [2] | potency as estrogen receptor modulator relative to tamoxifen (estrogen receptor) [fold] | 8,9-unsaturated sterols in mouse CNS [3] | remyelination of LPC lesion (LPC-lesioned spinal cord [4]) | 8,9-unsaturated sterol accumulation in human cortical spheroids [5] | formation of MyRF-positive human oligodendrocytes [6] | blood brain barrier penetration [7] | remyelination in mouse models of demyelination (earlier work) (LPC-lesioned spinal cord [8]) | IC50 (rat CYP51) [nM] |
| --- | --- | --- | --- | --- | --- | --- | --- | --- | --- | --- |
| 4-hydroxytamoxifen | enhance the formation of oligodendrocytes with comparable potency | inhibit EBP in OPCs | 100 | – | – | – | – | – | – | – |
| CC(C(O)c1ccc(O)cc1)N1CCC(Cc2ccccc2)CC1 (centres unmarked) [ifenprodil, Ifenprodil] | – | – | – | induced significant accumulation of 8,9-unsaturated sterols in vivo in the CNS | remyelination was widespread throughout the lesion | led to 8,9-unsaturated sterol accumulation | enhanced the formation of myelin regulatory factor (MyRF)-positive human oligodendrocytes | known to cross the mouse blood brain barrier | – | – |
| Clc1ccc(COC(Cn2ccnc2)c2ccc(Cl)cc2Cl)c(Cl)c1 (centres unmarked) [miconazole, Miconazole] | – | – | – | – | – | led to 8,9-unsaturated sterol accumulation | – | – | enhances remyelination in mouse models of demyelination | 300 to 700 |

— patent publication US12102644B2, “Compounds and methods of promoting myelination” (Case Western Reserve University, priority 2019, dated 2024)
